From US20260184706A1, “PHENYLSULFONAMIDE DERIVATIVES, PREPARATION METHOD THEREFOR, AND PHARMACEUTICAL COMPOSITION FOR PREVENTION OR TREATMENT OF CANCER CONTAINING SAME AS ACTIVE INGREDIENT” (Korea Research Institute of Chemical Technology, priority 2022, published 2026) come the findings set out here.

Each structure is given as a SMILES string.

Assay [1] has as its target T1, recombinant human PERK protein (Homo sapiens, UniProt Q9NZJ5).
T1 sequence (Q9NZJ5 30-1116): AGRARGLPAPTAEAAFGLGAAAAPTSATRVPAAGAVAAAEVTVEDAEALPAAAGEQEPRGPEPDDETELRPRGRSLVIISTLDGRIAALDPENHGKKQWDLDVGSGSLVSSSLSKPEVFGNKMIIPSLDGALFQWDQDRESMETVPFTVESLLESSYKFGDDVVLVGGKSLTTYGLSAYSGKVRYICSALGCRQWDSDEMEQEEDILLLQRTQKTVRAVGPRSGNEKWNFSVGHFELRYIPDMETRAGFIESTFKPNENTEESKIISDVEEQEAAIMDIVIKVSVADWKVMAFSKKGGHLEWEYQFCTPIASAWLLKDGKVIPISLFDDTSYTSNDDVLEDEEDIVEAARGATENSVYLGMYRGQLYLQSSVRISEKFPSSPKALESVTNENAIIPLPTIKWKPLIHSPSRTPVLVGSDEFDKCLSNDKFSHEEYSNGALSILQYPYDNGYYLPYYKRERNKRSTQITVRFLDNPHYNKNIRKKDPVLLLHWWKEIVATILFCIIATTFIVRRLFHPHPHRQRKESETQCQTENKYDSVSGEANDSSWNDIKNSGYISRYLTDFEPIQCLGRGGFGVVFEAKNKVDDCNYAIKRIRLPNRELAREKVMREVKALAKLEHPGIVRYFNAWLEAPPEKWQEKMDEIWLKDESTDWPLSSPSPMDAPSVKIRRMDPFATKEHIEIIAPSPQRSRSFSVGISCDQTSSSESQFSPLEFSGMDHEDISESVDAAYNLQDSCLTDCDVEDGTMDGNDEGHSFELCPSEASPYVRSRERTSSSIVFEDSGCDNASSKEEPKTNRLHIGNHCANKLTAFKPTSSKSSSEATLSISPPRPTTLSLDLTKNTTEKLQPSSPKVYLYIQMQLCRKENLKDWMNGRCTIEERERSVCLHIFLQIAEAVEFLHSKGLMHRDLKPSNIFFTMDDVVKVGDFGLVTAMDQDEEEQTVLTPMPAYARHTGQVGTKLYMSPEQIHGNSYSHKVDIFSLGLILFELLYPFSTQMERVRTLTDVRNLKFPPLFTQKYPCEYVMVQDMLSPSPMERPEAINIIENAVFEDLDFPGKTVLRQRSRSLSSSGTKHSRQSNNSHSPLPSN
As to the kind of experiment: PKR-like endoplasmic reticulum kinase (PERK) inhibitory capacity, 33P-ATP filter assay. Type of assay: biochemical. As to conditions: 15 uM [gamma-33P-ATP], 40 minutes, room temperature. As to the method: <Experimental Example 1> Evaluation of PKR-Like Endoplasmic Reticulum Kinase (PERK) Inhibitory Capacity
A recombinant human PERK protein was mixed with the compound in a reaction solution (8 mM MOPS pH 7.0, 0.2 mM EDTA, 300 uM RSRSRSRSRSRSRSR, 10 mM Magnesium acetate, 15 uM [gamma-33P-ATP]) and reacted at room temperature for 40 minutes. Then, the reaction was terminated by adding phosphoric acid (0.5%) to the reaction mixture, and 10 ul of the reaction solution was dropped onto a P30 filter. The filter was washed four times in a 0.425% phosphoric acid solution for 4 minutes, then washed once more in methanol, dried, and the PERK activity was measured by scintillation counting. […] The compound was diluted by 1/3 from the highest concentration of 1 uM and treated with a total of 9 concentrations to evaluate the degree of inhibition.

Assay [2] concerns the target recombinant human GCN2 protein (Homo sapiens, UniProt Q9P2K8). As to the kind of experiment: General control nonderepressible 2 (GCN2) inhibitory capacity, 33P-ATP filter assay. Type of assay: biochemical. As to conditions: recombinant human GCN2, 70 uM [gamma-33P-ATP], 40 minutes, room temperature. As to the method:
<Experimental Example 2> Evaluation of General Control Nonderepressible 2 (GCN2) Inhibitory Capacity
A recombinant human GCN2 protein was mixed with the compound in a reaction solution (20 mM Tris/HCl pH8.5, 0.2 mM EDTA, 0.1% Tween, 100 mM NaCl, 300 μM RSRSRSRSRSRSRSR, 10 mM Magnesium acetate, 70 uM [gamma-33P-ATP]) and reacted at room temperature for 40 minutes. Then, the reaction was terminated by adding phosphoric acid (0.5%) to the reaction mixture, and 10 ul of the reaction solution was dropped onto a P30 filter. The filter was washed four times in a 0.425% phosphoric acid solution for 4 minutes, then washed once more in methanol, dried, and the GCN2 activity was measured by scintillation counting. […] The compound was diluted by 1/3 from the highest concentration of 1 uM and treated with a total of 9 concentrations to evaluate the degree of inhibition.

In the next assay the target is T2, phosphorylated GCN2 (Homo sapiens, UniProt Q9P2K8).
T2 construct: endogenous in cells; host or cells: HT-1080
As to the kind of experiment: Inhibition of phosphorylated GCN2 under amino acid deficiency in HT-1080 cells, Western blot. In kind it is cell-based. As to conditions: compound 50 nM, 24 hours; for Phospho-GCN2 inhibition: symbols ◯ / X not defined. As to the method: <Experimental Example 5> Evaluation of Inhibitory Efficacy of ISR-Related Kinase GCN2 Under Amino Acid Deficiency Condition Using Western Blot
HT-1080 cells, a human fibrosarcoma cell line, were cultured in RPMI-1640 medium supplemented with 10% FBS, penicillin (penicillin; 100 IU/ml), and streptomycin (streptomycin; 100 μg/ml). Cells (1×10^6 cells/ml) were seeded onto 100 mm plates (polypropylene tissue culture plate) and incubated for 24 hours in a 37° C., 5% CO2 incubator before being used for experiments.
The following method was used to achieve amino acid deficiency conditions in cells. After 24 hours of cell culture, the cells were cultured in amino acids and L-glutamine-free RPMI-1640 medium supplemented with 10% FBS, penicillin (100 IU/ml), and streptomycin (100 μg/ml). After 24 hours of cell culture in RPMI-1640 without amino acids and L-glutamine, the compound prepared at a concentration of 50 nM was dispensed onto each plate and cultured for 24 hours in a 37° C., 5% CO2 incubator.
In order to measure the signal transduction inhibitory efficacy of GCN among the ISR-related kinases according to the present invention, the following experiment was performed using SDS-PAGE. The fibrosarcoma cell line HT-1080 cells cultured on plates as described above were washed with PBS after removing the culture medium. After removing PBS, the cells were lysed by adding a radio-immunoprecipitation assay buffer (RIPA buffer) containing 50 mM Tris (pH 7.4), 150 mM NaCl, 1% NP-40, 0.5% sodium deoxycholate, 2 mM sodium fluoride, 2 mM EDTA, 0.1% SDS, and a protease/phosphatase inhibitor cocktail to the plate. After centrifugation at 4° C., 13,000×g for 15 minutes, the protein in the upper layer was collected, and the protein concentration was measured at 562 nm using BCA (bicinchoninc acid) reagent, and the amount of protein in all samples was prepared at 20-50 μg.
After making the total volume the same using the sample buffer and RIPA buffer, it was heated at 97° C. for 5 minutes. Then, electrophoresis was performed on 8% or 12% SDS-PAGE at 80 V for 30 minutes and at 160 V for 1 hour and 30 minutes. After electrophoresis, the SDS-PAGE gel was transferred to an NC membrane (nitrocellulose membrane) at 90 V for 2 hours. The NC membrane was placed in TBST (tris buffer saline tween-20; 20 mM tris, 137 mM sodium chloride, 0.1% tween-20, pH 8.0) containing 5% non-fat skim milk, placed on a shaker, and reacted at room temperature for 1 hour.
Each primary antibody was diluted in TBST containing 5% non-fat skim milk, poured onto the NC membrane, and reacted at 4° C. for 24 hours. The membrane was washed three times for 10 minutes each with TBST. The secondary antibodies (anti-rabbit IgG and anti-mouse IgG labeled with horseradish peroxidase (HRP)) were diluted in TBST containing 5% non-fat skim milk and reacted with the membrane at room temperature for 1 hour. Upon completion of the reaction, the membrane was washed three times with TBST for 10 minutes each. Protein expression bands were detected by a chemiluminescence image analyzer (Image Quant LAS 500) after the ECL solution was reacted with the NC membrane.
GCN2, a key kinase of the integrated stress response (ISR), is phosphorylated in response to amino acid deficiency.

Sequence of recombinant human GCN2 protein (Q9P2K8 whole entry): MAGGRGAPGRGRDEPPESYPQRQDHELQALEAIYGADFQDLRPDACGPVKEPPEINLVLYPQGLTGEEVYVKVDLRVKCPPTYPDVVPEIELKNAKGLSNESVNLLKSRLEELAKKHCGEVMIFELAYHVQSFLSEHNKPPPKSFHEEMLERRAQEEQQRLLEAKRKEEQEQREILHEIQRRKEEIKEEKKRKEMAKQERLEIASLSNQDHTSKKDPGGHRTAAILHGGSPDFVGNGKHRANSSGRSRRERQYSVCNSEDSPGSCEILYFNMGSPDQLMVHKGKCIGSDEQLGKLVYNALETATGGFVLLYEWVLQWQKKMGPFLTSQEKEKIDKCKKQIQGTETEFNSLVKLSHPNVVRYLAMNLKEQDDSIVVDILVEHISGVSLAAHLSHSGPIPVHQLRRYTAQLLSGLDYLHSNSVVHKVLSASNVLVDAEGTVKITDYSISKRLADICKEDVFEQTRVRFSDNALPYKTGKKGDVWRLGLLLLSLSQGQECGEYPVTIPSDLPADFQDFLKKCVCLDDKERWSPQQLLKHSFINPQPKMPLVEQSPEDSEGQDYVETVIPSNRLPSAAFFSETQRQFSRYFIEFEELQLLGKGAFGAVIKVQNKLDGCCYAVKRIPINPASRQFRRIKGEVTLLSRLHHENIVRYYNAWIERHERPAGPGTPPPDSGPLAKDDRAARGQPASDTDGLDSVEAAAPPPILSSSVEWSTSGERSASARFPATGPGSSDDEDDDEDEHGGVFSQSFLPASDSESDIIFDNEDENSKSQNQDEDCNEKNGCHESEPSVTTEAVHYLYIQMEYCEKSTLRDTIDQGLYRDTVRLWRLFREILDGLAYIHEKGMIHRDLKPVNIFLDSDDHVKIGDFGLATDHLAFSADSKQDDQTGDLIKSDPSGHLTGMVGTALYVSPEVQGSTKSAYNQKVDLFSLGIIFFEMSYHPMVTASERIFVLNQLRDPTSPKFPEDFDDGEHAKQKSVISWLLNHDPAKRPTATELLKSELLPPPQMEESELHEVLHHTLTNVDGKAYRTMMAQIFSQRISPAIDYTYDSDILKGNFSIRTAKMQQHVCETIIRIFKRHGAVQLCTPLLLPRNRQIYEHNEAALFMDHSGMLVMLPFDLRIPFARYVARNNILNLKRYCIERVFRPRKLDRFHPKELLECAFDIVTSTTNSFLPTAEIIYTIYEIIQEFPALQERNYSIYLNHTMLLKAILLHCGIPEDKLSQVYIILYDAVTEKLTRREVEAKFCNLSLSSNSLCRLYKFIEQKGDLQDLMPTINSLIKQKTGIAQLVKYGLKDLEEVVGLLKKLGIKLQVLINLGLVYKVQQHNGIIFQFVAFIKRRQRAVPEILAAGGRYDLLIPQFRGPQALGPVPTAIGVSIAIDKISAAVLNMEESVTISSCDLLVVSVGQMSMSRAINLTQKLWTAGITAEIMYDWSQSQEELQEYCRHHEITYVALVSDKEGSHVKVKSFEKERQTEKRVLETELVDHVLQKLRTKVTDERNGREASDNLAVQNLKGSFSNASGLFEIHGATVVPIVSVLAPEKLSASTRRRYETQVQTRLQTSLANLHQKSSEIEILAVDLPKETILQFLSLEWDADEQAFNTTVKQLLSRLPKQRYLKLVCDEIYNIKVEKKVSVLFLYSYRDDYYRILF
T2 sequence (Q9P2K8 whole entry): as above

For the compound `Cn1c(=O)c(-c2c(F)ccc(NS(=O)(=O)c3ccc(Cl)s3)c2F)cc2cnc(N)nc21` [Example 19, N-(3-(2-amino-8-methyl-7-oxo-7,8-dihydropyrido[2,3-d]pyrimidin-6-yl)-2,4-difluorophenyl)-5-chlorothiophene-2-sulfonamide], the IC50 in assay [1] and in assay [2] was under 100 nM each time.

For `CNc1ncc2cc(-c3c(F)ccc(NS(=O)(=O)c4cc(Cl)ccc4Cl)c3F)c(=O)n(C)c2n1` [Example 20, 2,5-dichloro-N-(2,4-difluoro-3-(8-methyl-2-(methylamino)-7-oxo-7,8-dihydropyrido[2,3-d]pyrimidin-6-yl)phenyl)benzenesulfonamide], the values for the IC50 in assay [1] and in assay [2] were over 1000 nM and 100 to 300 nM, respectively.

`COc1ncc(Cl)cc1S(=O)(=O)Nc1ccc(F)c(-n2ccc3nc(N)ncc3c2=O)c1F` [Example 26, N-(3-(2-amino-5-oxopirido[4,3-d]pyrimidin-6(5H)-yl)-2,4-difluorophenyl)-5-chloro-2-methoxypyridine-3-sulfonamide]: the IC50 in assay [2] is under 100 nM. Further, on phosphorylated GCN2, the “inhibitory effect on the phosphorylated GCN2” value (from here on “inhibitory effect”) is on record as “excellent inhibitory effect” and the Phospho-GCN2 inhibition result is recorded as “◯”.

Consider `Cc1nn(-c2c(F)ccc(NS(=O)(=O)c3c(Cl)nn(C)c3C)c2F)c(=O)c2cnc(N)nc12` [Example 36, N-(3-(2-amino-8-methyl-5-oxopyrimido[4,5-d]pyridazine-6(5H)-yl)-2,4-difluorophenyl)-3-chloro-1,5-dimethyl-1H-pyrazole-4-sulfonamide], for which the IC50 in assay [2] fell in the range of 100 to 300 nM. The “inhibitory effect” value against phosphorylated GCN2 is “excellent inhibitory effect”.

As to `COc1ncc(Cl)cc1S(=O)(=O)Nc1ccc(F)c(-n2nc(C)c3nc(N)ncc3c2=O)c1F` [Example 38, N-(3-(2-amino-8-methyl-5-oxopyrimido[4,5-d]pyridazine-6(5H)-yl)-2,4-difluorophenyl)-5-chloro-2-methoxypyridine-3-sulfonamide], the IC50 in assay [2] was 100 to 300 nM. On phosphorylated GCN2, the Phospho-GCN2 inhibition result is on record as “◯”.

Turning to `Cc1nn(C)c(C)c1S(=O)(=O)Nc1ccc(F)c(-n2c(=O)c3cnc(N)nc3n(C)c2=O)c1F` [Example 48, N-(3-(7-amino-1-methyl-2,4-dioxo-1,4-dihydropyrimido[4,5-d]pyrimidin-3(2H)-yl)-2,4-difluorophenyl)-1,3,5-trimethyl-1H-pyrazole-4-sulfonamide], the IC50 in assay [2] fell in the range of 100 to 300 nM. The Phospho-GCN2 inhibition result at phosphorylated GCN2 is on record as “◯”.

For `Nc1ncc2c(=O)n(-c3c(F)ccc(NS(=O)(=O)c4cc(Cl)ccc4Cl)c3F)c(=O)n(C3CC3)c2n1` [Example 63, N-(3-(7-amino-1-cyclopropyl-2,4-dioxo-1,4-dihydropyrimido[4,5-d]pyrimidin-3(2H)-yl)-2,4-difluorophenyl)-2,5-dichlorobenzenesulfonamide], the IC50 in assay [2] was in the range of 300 to 1000 nM. Also, on phosphorylated GCN2, the “inhibitory effect” value is on record as “excellent inhibitory effect” and the Phospho-GCN2 inhibition result is given as “◯”.

On to `Nc1ncc2c(=O)n(-c3c(F)ccc(NS(=O)(=O)c4cccc5ccccc45)c3F)c(=O)n(C3CC3)c2n1` [Example 64, N-(3-(7-amino-1-cyclopropyl-2,4-dioxo-1,4-dihydropyrimido[4,5-d]pyrimidin-3(2H)-yl)-2,4-difluorophenyl)naphthalene-1-sulfonamide], for which the IC50 in assay [2] fell in the range of 300 to 1000 nM. Also, on phosphorylated GCN2, the “inhibitory effect” value is reported as “excellent inhibitory effect” and the Phospho-GCN2 inhibition entry was “◯”.

As for `COc1ncc(Cl)cc1S(=O)(=O)Nc1ccc(F)c(-n2c(=O)c3cnc(N)nc3n(C3CC3)c2=O)c1F` [Example 65, N-(3-(7-amino-1-cyclopropyl-2,4-dioxo-1,4-dihydropyrimido[4,5-d]pyrimidin-3(2H)-yl)-2,4-difluorophenyl)-5-chloro-2-methoxypyridine-3-sulfonamide], the IC50 in assay [2] lay in the range of 300 to 1000 nM. For the same compound, on phosphorylated GCN2, the “inhibitory effect” value is recorded as “excellent inhibitory effect” and the Phospho-GCN2 inhibition result was “◯”.

Usually IC50 stands for the point on the concentration scale where inhibition reaches its midpoint.
